Patent US20250099448A1, “HETEROCYCLIC COMPOUNDS” (Hoffmann-La Roche Inc., priority 2022, published 2025)

Molecular target: T1, MAGL protein (Homo sapiens, UniProt Q99685)
T1 sequence (Q99685 1-303): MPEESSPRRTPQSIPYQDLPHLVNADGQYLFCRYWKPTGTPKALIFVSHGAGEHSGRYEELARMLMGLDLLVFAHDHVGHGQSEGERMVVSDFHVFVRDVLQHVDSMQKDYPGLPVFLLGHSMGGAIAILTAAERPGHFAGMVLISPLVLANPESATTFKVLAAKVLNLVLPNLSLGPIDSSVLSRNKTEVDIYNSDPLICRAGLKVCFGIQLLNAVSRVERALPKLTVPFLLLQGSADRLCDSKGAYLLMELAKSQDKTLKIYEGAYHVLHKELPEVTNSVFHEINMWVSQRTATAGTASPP
Assay: 2-AG assay: MAGL inhibitory activity by hydrolysis of 2-arachidonoylglycerol to arachidonic acid, followed by mass spectrometry
Type: biochemical
Details: 8 μM 2-arachidonoylglycerol, 15 min preincubation, 30 min reaction at RT, RapidFire MS readout
Summary of the method: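 Activity was measured by RapidFire SPE–triple-quad MS as the ratio of arachidonic acid to d8-arachidonic acid after 2-AG hydrolysis (8 μM substrate, 30 min, RT, acetonitrile quench). Compounds, tested from 12.5 μM down to […], were first preincubated 15 min with MAGL in TRIS/EDTA/Tween-20 buffer containing 2.5% DMSO.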

SMILES	IC50
O=C(N1CC2(CC(Cc3cncc(F)c3)C2)C1)N1CC2(CC(c3nnc(C4CC4)[nH]3)C2)C1 [compound 45]	2.37 nM
CS(=N)(=O)c1cc(F)ccc1CC1CC2(C1)CN(C(=O)N1CC3(CC(c4nc(C5CC5)n[nH]4)C3)C1)C2 (stereo not drawn) [Example 735, [6-(3-cyclopropyl-1H-1,2,4-triazol-5-yl)-2-azaspiro[3.3]heptan-2-yl]-[6-[4-fluoro-2-(methylsulfonimidoyl)benzyl]-2-azaspiro[3.3]heptan-2-yl]methanone]	2.34 nM
O=C(N1CC(c2ccc(N3CCC4(COC4)C3)nc2)C1)N1CC2(CC(c3nnc(C4CC4)[nH]3)C2)C1 [Example 303, [6-(5-cyclopropyl-4H-1,2,4-triazol-3-yl)-2-azaspiro[3.3]heptan-2-yl]-[3-[6-(2-oxa-7-azaspiro[3.4]octan-7 yl)-3-pyridyl]azetidin-1-yl]methanone]	6.31 nM
N#Cc1cccn(CC2CC3(C2)CN(C(=O)N2CC4(CC(c5nc(C6CC6)n[nH]5)C4)C2)C3)c1=O [compound 510]	20.4 nM
O=C(N1CC(OCc2ccc(S(=O)(=O)C(F)(F)F)cc2)C1)N1CC2(CC(c3nnc(C4CC4)[nH]3)C2)C1 [compound 316]	6.21 nM
O=C(N1CC2(CC(c3nnc(C4CC4)[nH]3)C2)C1)C12C3C4C1C1C2C3C41Nc1cnc(C(F)(F)F)cn1 (stereo not drawn) [Example 811, [6-(5-cyclopropyl-4H-1,2,4-triazol-3-yl)-2-azaspiro[3.3]heptan-2-yl]-[4-[[5-(trifluoromethyl)pyrazin-2-yl]amino]cuban-1-yl]methanone]	0.43 nM
O=C(N1CC2(CC(c3nnc(C4CC4)[nH]3)C2)C1)N1CC2(CCN(Cc3ccc(C(F)(F)F)cn3)C2)C1 [compound 182]	5.91 nM
O=C(N1CC2(CC(c3nnc(C4CC4)[nH]3)C2)C1)N1CC2(CN(Cc3ncc(F)cc3F)C2)C1 [compound 165]	30.9 nM
O=C(N1CC2(CC(Cc3ncc(F)cc3F)C2)C1)N1CC2(CC(c3nnc(C4(O)CC4)[nH]3)C2)C1 [compound 116]	2.39 nM
O=C(N1CCC(COc2ccc(C(F)(F)F)nc2)CC1)N1CC2(CC(c3nnc(C4CC4)[nH]3)C2)C1 [Example 903]	125 nM
O=C(NC1(C(F)(F)F)CC1)C1CC2(C1)CN(C(=O)N1CC3(CC(c4nnc(C5CC5)[nH]4)C3)C1)C2 [compound 72]	157 nM
O=C(N1CC(NCc2cc(F)ccc2C(F)(F)F)C1)N1CC2(CC(c3nnc(C4CC4)[nH]3)C2)C1 [compound 187]	70.5 nM
O=C(N1CC2(CC(Oc3ccc(C(F)(F)F)nn3)C2)C1)N1CC2(CC(c3nnc(C4(O)CC4)[nH]3)C2)C1 [compound 79]	43.4 nM
O=C(N1CC2(CC(CNC3(C(F)(F)F)CC3)C2)C1)N1CC2(CC(c3nnc(C4(O)CC4)[nH]3)C2)C1 [compound 55]	22 nM
O=C(N1CC2(CC(Cc3cc(F)cc(S(=O)(=O)C(F)(F)F)c3)C2)C1)N1CC2(CC(c3nc(C4(O)CC4)n[nH]3)C2)C1 [compound 518]	0.22 nM
O=C(N1CC2(CC(Cc3cc(F)cc(C(F)(F)F)c3)C2)C1)N1CC2(CC(c3nnc(C4(O)CC4)[nH]3)C2)C1 [compound 122]	< 0.05 nM
O=C(N1CC(C23CC(c4nnc(CC(F)(F)F)o4)(C2)C3)C1)N1CC2(CC(c3nnc(C4CC4)[nH]3)C2)C1 [compound 344]	7.59 nM
CS(=O)(=O)c1cc(C(F)(F)F)ccc1COC1CCN(C(=O)N2CC3(CC(c4nc(C5CC5)n[nH]4)C3)C2)CC1 [Example 907, [6-(3-cyclopropyl-1H-1,2,4-triazol-5-yl)-2-azaspiro[3.3]heptan-2-yl]-[4-[2-mesyl-4-(trifluoromethyl)benzyl]oxypiperidino]methanone]	43.1 nM
N=S(=O)(c1ccc(C2CN(C(=O)N3CC4(CC(c5nc(C6(O)CC6)n[nH]5)C4)C3)C2)cc1)C1CC1 (stereo not drawn) [compound 496]	37 nM
Cc1nc(CN2CCN(C(=O)N3CC4(CC(c5nc(C6CC6)n[nH]5)C4)C3)CC2)co1 [Example 879, [6-(3-cyclopropyl-1H-1,2,4-triazol-5-yl)-2-azaspiro[3.3]heptan-2-yl]-[4-[(2-methyloxazol-4-yl)methyl]piperazino]methanone]	300 nM
O=C(N1CC2(CC(c3nnc(C4CCC4)[nH]3)C2)C1)N1CC2(C1)CN(S(=O)(=O)c1ccc(OC(F)(F)F)cc1)C2 [compound 93]	143 nM
O=C(N1CC2(CCC(Cc3ccc(C(F)(F)F)cn3)CC2)C1)N1CC2(CC(c3nnc(C4(O)CC4)[nH]3)C2)C1 [compound 49]	0.81 nM
O=C(N1CC2(CC(c3nnc(C4CC4)[nH]3)C2)C1)N1CC2(C1)CN(S(=O)(=O)c1ccc(F)cc1F)C2 [compound 105]	21.3 nM
O=C(N1CC(OCc2ccc(S(=O)(=O)C(F)(F)F)cc2F)C1)N1CC2(CC(c3nnc(C4CC4)[nH]3)C2)C1 [compound 309]	2.2 nM
O=C(N1CC(c2cnc(OCC3(C(F)(F)F)CC3)cn2)C1)N1CC2(CC(c3nc(C4(F)CC4)n[nH]3)C2)C1 [compound 431]	0.39 nM

Results, then the molecule that gave them:

IC50	SMILES
11.8 nM	O=C(N1CC2(CC(Cc3ccc(OC(F)(F)F)nc3)C2)C1)N1CC2(CC(c3nc(C4COC4)n[nH]3)C2)C1 [compound 769]
0.52 nM	N=S(=O)(c1ccc(C2CN(C(=O)N3CC4(CC(c5nc(C6CC6)n[nH]5)C4)C3)C2)cc1)C(F)(F)F (stereo not drawn) [compound 638]
4.33 nM	O=C(N1CC2(CC(Cc3ccc4[nH]ncc4n3)C2)C1)N1CC2(CC(c3nc(C4CC4)n[nH]3)C2)C1 [compound 684]
7.44 nM	O=C(N1CC2(CC(c3nc(C4CC4)n[nH]3)C2)C1)N1CC2(CN(Cc3nc(C4(C(F)(F)F)CC4)no3)C2)C1 [compound 959]
10.6 nM	Cc1nc(C)n(-c2ccc(C3CN(C(=O)N4CC5(CC(c6nnc(C7CC7)[nH]6)C5)C4)C3)cc2)n1 [compound 841]
104 nM	O=C(N1CC2(CC(Cn3cc(C(F)(F)F)cn3)C2)C1)N1CC2(CC(c3nc(C4COC4)n[nH]3)C2)C1 [compound 634]
0.67 nM	N=S(=O)(c1cccc(OC2CC3(C2)CN(C(=O)N2CC4(CC(c5nc(C6CC6)n[nH]5)C4)C2)C3)c1)C(F)(F)F (stereo not drawn) [compound 848]
0.42 nM	O=C(N1CC2(CC(Oc3cc(C(F)(F)F)ccn3)C2)C1)N1CC2(CC(c3nc(C4CC4)n[nH]3)C2)C1 [compound 969]
0.29 nM	N#Cc1ccc(CC2CC3(C2)CN(C(=O)N2CC4(CC(c5nc(C6(O)CC6)n[nH]5)C4)C2)C3)c(F)c1 [compound 752]
2.94 nM	O=C(N1CC2(CC(Cc3ncc(Cl)cc3F)C2)C1)N1CC2(CC(c3nc(C4(O)CC4)n[nH]3)C2)C1 [compound 676]
0.02 nM	O=C(N1CC2(CC(c3nc(C4CC4)n[nH]3)C2)C1)N1CC2(CC[C@H](Cc3cccc(S(=O)(=O)C(F)(F)F)c3)C2)C1 [compound 594]
0.66 nM	O=C(N1CC2(CC(c3nc(C4CC4)n[nH]3)C2)C1)N1CC2(CCN(Cc3cccc(S(=O)(=O)C(F)(F)F)c3)C2)C1 [compound 549]
2.8 nM	Cc1c(C(F)(F)F)n[nH]c1CN1CC2(C1)CN(C(=O)N1CC3(CC(c4nnc(C5CC5)[nH]4)C3)C1)C2 [compound 874]
4.49 nM	O=C(N1CC2(CC(Cc3cnn(CC(F)(F)F)c3)C2)C1)N1CC2(CC(c3nc(C4(O)CC4)n[nH]3)C2)C1 [compound 765]
0.05 nM	O=C(N1CC2(CC(Cc3ccc4c(C(F)(F)F)n[nH]c4c3)C2)C1)N1CC2(CC(c3nc(C4CC4)n[nH]3)C2)C1 [compound 989]
0.2 nM	O=C(N1CC2(CC(Cn3cc(C4(C(F)(F)F)CC4)cn3)C2)C1)N1CC2(CC(c3nc(C4CC4)n[nH]3)C2)C1 [compound 711]
27.5 nM	O=C(N1CC2(CC(c3nc(C4CC4)n[nH]3)C2)C1)N1CC2(CN(Cc3cnc(C(F)(F)F)o3)C2)C1 [compound 642]
54.1 nM	N=S(=O)(c1ccc(CC2CC3(C2)CN(C(=O)N2CC4(CC(c5nc(C6CC(F)(F)C6)n[nH]5)C4)C2)C3)cc1)C(F)(F)F (stereo not drawn) [compound 687]
0.18 nM	Cc1cc([C@H](C)C2CC3(C2)CN(C(=O)N2CC4(CC(c5nc(C6CC6)n[nH]5)C4)C2)C3)ncc1C(F)(F)F [compound 967]
1220 nM	O=C(N1CC2(CC(Cc3ccc(Cl)cn3)C2)C1)N1CC2(CC(c3ncn[nH]3)C2)C1 [compound 831]
550 nM	O=C(N1CC2(CC(c3nc(C4CC4)n[nH]3)C2)C1)N1CC2(CN(Cc3ccc[nH]c3=O)C2)C1 [compound 718]
0.06 nM	Cn1cc(-c2ccc(C3CN(C(=O)N4CC5(CC(c6nnc(C7CC7)[nH]6)C5)C4)C3)cc2)c(C(F)(F)F)n1 [compound 834]
0.97 nM	O=C(N1CC2(CC(Cc3ncc(C(F)(F)F)cn3)C2)C1)N1CC2(CC(c3nc(C4(F)CC4)n[nH]3)C2)C1 [compound 647]
0.39 nM	N#Cc1cc(CC2CC3(C2)CN(C(=O)N2CC4(CC(c5nnc(C6CC6)[nH]5)C4)C2)C3)cnc1C(F)(F)F [compound 833]
424 nM	O=C(N1CC(c2ccc(N3CC(O)(C(F)(F)F)C3)nc2)C1)N1CC2(CC(c3nc(C4CC(F)(F)C4)n[nH]3)C2)C1 [compound 646]
0.09 nM	Cn1ncc(CC2CC3(C2)CN(C(=O)N2CC4(CC(c5nc(C6CC6)n[nH]5)C4)C2)C3)c1C(F)(F)F [compound 729]
78.6 nM	O=C(N1CC2(CC(c3nc(C4CC4)n[nH]3)C2)C1)N1CC2(CN(Cc3nnnn3CC(F)(F)F)C2)C1 [compound 521]
0.22 nM	O=C(N1CC2(CC(Cc3cc(C4CC4)n[nH]3)C2)C1)N1CC2(CC(c3nc(C4CC4)n[nH]3)C2)C1 [compound 644]
20.1 nM	O=C(N1CC2(CC(Cc3ccc4[nH]ncc4n3)C2)C1)N1CC2(CC(c3nc(C4(O)CC4)n[nH]3)C2)C1 [compound 692]
